The values that follow come from patent US7728146B2, “Enzyme inhibitors” (Probiodrug AG, priority 2006, dated 2010).

SMILES strings stand for the structures. pIC50: −log10 of the molar value.

The target of one experiment is DP IV (Homo sapiens, UniProt P27487). Put plainly: DP IV inhibition IC50, parallel-synthesis compounds tested directly following synthesis (without purification). Further details: IC50 DP4; other: tested directly following parallel synthesis, without purification; compounds of formula (Ib) from parallel synthesis, tested directly following synthesis. The format is biochemical. The settings on record: DP IV inhibition; compounds of formula (Ib) from parallel synthesis, tested directly following synthesis (without purification); read-out: IC50. In short, it runs like this: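 IC50 came from a 4-parameter fit of residual activity (linear 405 nm slopes for pNA release over ~18 min, relative to solvent-only wells). Gly-Pro-pNA was the substrate, cleaved by porcine kidney or recombinant human DP IV at room temperature in HEPES with 5% DMSO; duplicate 1:2 series started at 100 μM final.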
For `NCc1c(-c2ccc(Cl)cc2Cl)ncn1CCc1cccnc1` [9b, C-[5-(2,4-Dichloro-phenyl)-3-(2-pyridin-3-yl-ethyl)-3H-imidazol-4-yl]-methylamine], the pIC50 is 5.14. Take `NCc1c(-c2ccc(Cl)cc2Cl)ncn1Cc1ccc(-c2ccccc2)cc1` [75b, C-[3-Biphenyl-4-ylmethyl-5-(2,4-dichloro-phenyl)-3H-imidazol-4-yl]-methylamine]: the pIC50 is 4.63. On to `NCc1c(-c2ccc(Cl)cc2Cl)ncn1CCc1ccccc1F` [83b, C-{5-(2,4-Dichloro-phenyl)-3-[2-(2-fluoro-phenyl)-ethyl]-3H-imidazol-4-yl}-methylamine], for which the pIC50 was 5.26.

In the case of `NCc1c(-c2ccc(Cl)cc2Cl)ncn1Cc1cccc(Cl)c1Cl` [46b, C-[3-(2,3-Dichloro-benzyl)-5-(2,4-dichloro-phenyl)-3H-imidazol-4-yl]-methylamine], the pIC50 was 5.55. Take `NCc1c(-c2ccc(Cl)cc2Cl)ncn1Cc1ccc(Br)cc1` [25b, C-[3-(4-Bromo-benzyl)-5-(2,4-dichloro-phenyl)-3H-imidazol-4-yl]-methylamine]: the pIC50 is 5.19.

Turning to `NCCCc1c(-c2ccc(Cl)cc2Cl)ncn1CCNc1ccc([N+](=O)[O-])cn1` [74b, {2-[5-(3-Amino-propyl)-4-(2,4-dichloro-phenyl)-imidazol-1-yl]-ethyl}-(5-nitro-pyridin-2-yl)-amine], the pIC50 is 4.90. For the compound `Cc1cc(Cn2cnc(-c3ccc(Cl)cc3Cl)c2CN)no1` [13b, C-[5-(2,4-Dichloro-phenyl)-3-(5-methyl-isoxazol-3-ylmethyl)-3H-imidazol-4-yl]-methylamine], the pIC50 was 4.68.

Consider `CCCCCn1cnc(-c2ccc(Cl)cc2Cl)c1C(C)N` (centres unmarked) [115b, 1-[5-(2,4-Dichloro-phenyl)-3-pentyl-3H-imidazol-4-yl]-ethylamine], for which the negative-log IC50 (pIC50) is 4.53.

For the compound `CC(N)c1c(-c2ccc(Cl)cc2Cl)ncn1CCc1ccccn1` (centres unmarked) [73b, 1-[5-(2,4-Dichloro-phenyl)-3-(2-pyridin-2-yl-ethyl)-3H-imidazol-4-yl]-ethylamine], the pIC50 is 4.41.

Take `C[C@H](N)c1c(-c2ccc(Cl)cc2Cl)ncn1CCNc1ccc([N+](=O)[O-])cn1` [111b, {2-[5-((S)-1-Amino-ethyl)-4-(2,4-dichloro-phenyl)-imidazol-1-yl]-ethyl}-(5-nitro-pyridin-2-yl)-amine]: the pIC50 was 4.66.

The experiment is the same for the next values; noted with them: tested directly following parallel synthesis, without purification; read-out: IC50 DP4.
For `NCc1c(-c2ccc(Cl)cc2Cl)ncn1Cc1ccc(Cl)cc1` [Example 54a, C-[3-(4-Chloro-benzyl)-5-(2,4-dichloro-phenyl)-3H-imid-azol-4-yl]-methyl-amine], the pIC50 was 5.72. Same read-out and setting: to `CC(C)(C)Cn1cnc(-c2ccc(F)cc2F)c1CN` [Example 83a, C-[5-(2,4-Difluoro-phenyl)-3-(2,2-dimethyl-propyl)-3H-imid-azol-4-yl]-methyl-amine] belongs 4.57. Same read-out and setting: the figure for `NCc1c(-c2ccc(Cl)cc2Cl)ncn1Cc1cc(F)ccc1F` [Example 61a, C-[5-(2,4-Dichloro-phenyl)-3-(2,5-difluoro-benzyl)-3H-imid-azol-4-yl]-methyl-amine] is 5.72; for `Cc1ccc(-c2ncn(Cc3cc(Br)ccc3F)c2CN)c(C)c1` [Example 68a, C-[3-(5-Bro-mo-2-fluoro-benzyl)-5-(2,4-dimethyl-phenyl)-3H-imid-azol-4-yl]-methyl-amine] it is 4.42. Regarding `NCc1c(-c2ccc(F)cc2Cl)ncn1Cc1c(Cl)cccc1Cl` [Example 26a, C-[5-(2-Chloro-4-fluoro-phenyl)-3-(2,6-di-chloro-benzyl)-3H-imid-azol-4-yl]-methyl-amine], the pIC50 was 4.40. Still for that read-out and setting: to `NCc1c(-c2ccc(Cl)cc2Cl)ncn1Cc1ccccc1OC(F)(F)F` [Example 55a, C-[5-(2,4-Dichloro-phenyl)-3-(2-tri-fluorometh-oxy-benzyl)-3H-imid-azol-4-yl]-methyl-amine] belongs 7.00. For the compound `Cn1cccc1Cn1cnc(-c2ccc(Cl)cc2Cl)c1CN` [Example 64a, C-[5-(2,4-Dichloro-phenyl)-3-(1-methyl-1H-pyrrol-2-yl-methyl)-3H-imid-azol-4-yl]-methyl-amine], the pIC50 was 4.57.
